Assay results from US9956319B2, “Compositions useful as antibiofilm or antimicrobial agents and methods using same” (BAYLOR COLLEGE OF MEDICINE, priority 2012, dated 2018).

How the values were obtained:
common pathogens = assay: Antimicrobial activity of impregnated catheters, overall conclusion from Tables 1-8; assay type: cell-based; conditions: conclusion in words from Tables 1-8
[1] = system: methicillin-resistant Staphylococcus aureus (MRSA); assay: Bacterial colony counts extracted from impregnated central venous catheters after incubation in bacterial suspension; assay type: cell-based; conditions: 10^5 cfu/ml suspension in TSB, 37° C., 24 hours
Protocol: (§1) In this example, segments of 7 French triple lumen polyurethane central venous catheters were impregnated with α-lipoic acid using the method described elsewhere (U.S. Pat. No. 6,589,591) and were subjected to zones of inhibition. Briefly, α-lipoic acid was dissolved in 88% formic acid (at a final solution concentration of 50 mg/ml). 85% ortho-Phosphoric acid and glycerol were then added to the solution at 79:8:13 (v/v/v) (formic acid:ortho-phosphoric acid:glycerol). After mixing the solution, 300 mg/ml of potassium chloride was added to the final solution and mixed.
(§2) Catheter segments were then placed in the impregnating solution at 55° C. with agitation for 1 hour in the dark. Catheter segments were then removed from the solution and dried under a fume hood overnight in the dark. Catheter segments were rinsed with deionized water the next day and let dry for another 18 hours in the dark. After the impregnation process and drying, one-centimeter segments of impregnated catheters were individually placed in 1 ml of 10^5 cfu/ml suspensions of methicillin-sensitive Staphylococcus epidermidis (MSSE), methicillin-resistant Staphylococcus epidermidis (MRSE), methicillin-resistant Staphylococcus aureus (MRSA), Klebsiella pneumoniae, Escherichia coli, or Proteus mirabilis in trypticase soy broth (TSB) at 37° C. for 24 hours. One-centimeter segments of non-impregnated catheters were also incubated individually in each bacterial suspension at 37° C. for 24 hours as controls. Catheter segments were removed from each bacterial suspension after this period, shaken to remove excess broth containing free-floating bacteria from their surfaces, placed in 1 ml of normal saline, sonicated for 5 minutes, and vortexed for 30 seconds.
(§3) Aliquots of each suspension and subsequent dilutions were cultured quantitatively.
(§4) To evaluate the anticolonization/antimicrobial activity of central venous catheters treated with lipoamide, segments of 7 French triple lumen polyurethane central venous catheters were impregnated with lipoamide using the same patented method described in Example 1 (U.S. Pat. No. 6,589,591) with 100 mg/ml (final solution volume) of the agent. After the impregnation process and drying, Catheter segments were then placed in the impregnating solution at 55° C. with agitation for 1 hour in the dark. Catheter segments were then removed from the solution and dried under a fume hood overnight in the dark. Catheter segments were rinsed with deionized water the next day and let dry for another 18 hours in the dark. After the impregnation process and drying, one-centimeter segments of impregnated catheters were individually placed in 1 ml of 10^5 cfu/ml suspensions of MRSE, MRSA, or P. aeruginosa in trypticase soy broth (TSB) at 37° C. for 24 hours. One-centimeter segments of non-impregnated catheters were also incubated individually in each bacterial suspension at 37° C. for 24 hours as controls. Catheter segments were removed from each bacterial suspension after this period, shaken to remove excess broth containing free-floating bacteria from their surfaces, placed in 1 ml of normal saline, sonicated for 5 minutes, and vortexed for 30 seconds.
(§5) To evaluate the anticolonization/antimicrobial activity of central venous catheters treated with dihydrolipoic acid, segments of 7 French triple lumen polyurethane central venous catheters were impregnated with dihydrolipoic acid using the same patented method described in Example 1 (U.S. Pat. No. 6,589,591) with 25 mg/ml (final solution volume) of the agent. After the impregnation process and drying, Catheter segments were then placed in the impregnating solution at 55° C. with agitation for 1 hour in the dark. Catheter segments were then removed from the solution and dried under a fume hood overnight in the dark. Catheter segments were rinsed with deionized water the next day and let dry for another 18 hours in the dark. […]

[2] = system: methicillin-resistant Staphylococcus epidermidis (MRSE); assay: as above; assay type: cell-based; conditions: 10^5 cfu/ml suspension in TSB, 37° C., 24 hours
Protocol: as §1, §2, §3, §4, §5

MRSE = assay: Zones of inhibition of impregnated catheter segments, modified Kirby-Bauer method; assay type: cell-based, Staphylococcus epidermidis
Protocol: To evaluate the antimicrobial activity of central venous catheters treated with α-lipoic acid or its combination with gentamicin, segments of 7 French triple lumen polyurethane central venous catheters were impregnated with α-lipoic acid, gentamicin, or the combination of lipoic acid and gentamicin using the same patented method described in Example 1 with 50 mg/ml of each agent (for the final solution volume). After the impregnation process and drying, zones of inhibition were performed on one-centimeter segments according to a modified Kirby-Bauer method against MSSE, MRSE, MRSA, K. pneumoniae, E. coli, P. mirabilis, Pseudomonas aeruginosa, and Candida albicans. Each segment was half embedded in the center of a Muller-Hinton agar plate that had been previously inoculated with an individual organism. Prior to placing the catheter segments in agar, each organism was grown for 18 hours in TSB to a concentration of 0.5 McFarland (10^8 cfu/ml). A cotton swab was placed in the suspension and streaked across the surface of the Muller-Hinton agar plate to cover the entire plate. All plates were placed in a 37° C. incubator for 24 hours. Zones were measured in mm after the incubation period (Table 2).
To evaluate the antimicrobial activity of central venous catheters treated with α-lipoic acid or its combination with doxycycline, segments of 7 French triple lumen polyurethane central venous catheters were impregnated with doxycycline or the combinations of α-lipoic acid and doxycycline using the same patented method described in Example 1 (U.S. Pat. No. 6,589,591) with 50 mg/ml of each agent (for the final solution volume). After the impregnation process and drying, zones of inhibition were performed on one-centimeter segments according to a modified Kirby-Bauer method against MSSE, MRSE, MRSA, K. pneumoniae, E. coli, P. aeruginosa, P. mirabilis, and C. albicans as described in Example 2. Zones of inhibition were measured in mm after the incubation period (Table 3).
(§6) To evaluate the antimicrobial activity of central venous catheters treated with lipoamide or its combination with levofloxacin, segments of 7 French triple lumen polyurethane central venous catheters were impregnated with levofloxacin or the combinations of lipoamide and levofloxacin using the same patented method described in Example 1 (U.S. Pat. No. 6,589,591) with 100 mg/ml (final solution volume) of each agent. After the impregnation process and drying, zones of inhibition were performed on one-centimeter segments according to a modified Kirby-Bauer method against MSSE, MRSE, MRSA, vancomycin-resistant Enterococcus (VRE), K. pneumoniae, E. coli, P. aeruginosa, P. mirabilis, and C. albicans as described in Example 2. Zones of inhibition were measured in mm after the incubation period (Table 4).
as §6, with “doxycycline,” for “levofloxacin,”, “doxycycline” for “levofloxacin”, “5).” for “4).”
To evaluate the antimicrobial activity of central venous catheters treated with dihydrolipoic acid, segments of 7 French triple lumen polyurethane central venous catheters were impregnated with dihydrolipoic acid using the same patented method described in Example 1 (U.S. Pat. No. 6,589,591) with 25 mg/ml (final solution volume) of the agent. […]

[3] = catheter impregnated with 100 mg/ml
[4] = catheter impregnated with 25 mg/ml
[5] = catheter impregnated with 50 mg/ml

Row | SMILES | intrinsic antimicrobial activity (common pathogens) | Mean bacterial colony counts extracted from catheter [1, 3] | Mean bacterial colony counts extracted from catheter [2, 3] | zone of inhibition at 100000 µg/mL (MRSE; Staphylococcus epidermidis, catheter impregnated with 100 mg/ml of each agent) [mm] | Mean bacterial colony counts extracted from catheter [1, 4] | Mean bacterial colony counts extracted from catheter [2, 4] | Zones of inhibition (MRSE; catheter impregnated with 25 mg/ml of the agent) [mm] | Bacterial colony counts extracted from central venous catheters [1, 5] | Bacterial colony counts extracted from central venous catheters [2, 5] | zone of inhibition at 50000 µg/mL (MRSE; Staphylococcus epidermidis, catheter impregnated with 50 mg/ml of each agent, 37° C., 24 hours) [mm]
1 | NC(=O)CCCCC1CCSS1 (stereo not drawn) [Lipoamide, lipoamide] | unexpected intrinsic antimicrobial activities | 0 | 0 | 16 |  |  |  |  |  | 
2 | O=C(O)CCCCC(S)CCS (stereo not drawn) [Dihydrolipoic acid, 6,8-dimercaptooctanoic acid] | unexpected intrinsic antimicrobial activities |  |  |  | 50 | 380 | 21 |  |  | 
3 | O=C(O)CCCCC1CCSS1 (stereo not drawn) [Lipoic acid, 1,2-dithiolane-3-pentanoic acid] | unexpected intrinsic antimicrobial activities |  |  |  |  |  |  | 0 | 60 | 22
